Measured values from US20160015064A1, “COMPOUNDS, COMPOSITIONS, AND METHODS FOR MODULATING SWEET TASTE” (CHROMOCELL CORPORATION, priority 2013, published 2016).

Key:
[1] = test system: perception of the sweet taste of an aqueous solution of sweetener; experiment: Ranking sip and spit test of sweetness perception (R index); format: in vivo, humans; settings: compound 10 ppm, vs negative control
Protocol: The effect of the test compounds on the perception of the sweet taste of an aqueous solution of sweetener in humans was evaluated using a ranking “sip and spit” method.
(§1) The aqueous sweetener solutions were prepared by adding, fructose, sucrose or glucose (by weight), to water to achieve the desired concentration.
(§2) Compounds were first prepared as a 500-fold concentrated stock solution in 100% ethanol. These concentrated stocks were then added to the aqueous sweetener solutions to result in a final ethanol concentration of 0.2%. The control (positive and negative) samples were also normalized to 0.2% ethanol.
In the ranking test used for compound evaluation, taste panelists (n=15), rank samples in increasing order of sweetness. One set, comprising of 6 samples, was presented to each panelists at a given time and are asked to rank them in order of increasing sweetness.
Panelists were instructed not to eat or drink (except water) for at least 1 h before the test. During the test, panelists were instructed to sip each sample, swirl it around their mouth and then expectorate. After tasting each set, panelists were instructed to rank the 6 samples within the set from least sweet to most sweet. Where rank 1—is lowest in sweetness and rank 6—is highest in sweetness. Panelists cleansed their palates by rinsing with water, eating a cracker and waiting for an interval of 10 minutes. All samples were tasted at ambient temperatures. Each sample was tasted twice.
R index analysis was utilized to determine the degree of difference between a test and control sample. It indicates the level of discrimination between two samples. […] A positive control sample was used to assess the ability of the panelists to accurately discriminate sweetness perception differences from the negative control.

[2] = test system: perception of the sweet taste of an aqueous solution of sweetener; experiment: Two-alternative forced choice sip and spit method (2AFC); format: in vivo, humans
Protocol: The effect of the test compounds on the perception of the sweet taste of an aqueous solution of sweetener in humans was evaluated using a two-alternative forced choice “sip and spit” method (2AFC).
as §1
as §2, with “0.2% ethanol. This level of ethanol was not seen to contribute any perceived sweetness.” for “0.2% ethanol.”
The 2AFC test used for compound evaluation was a blind and randomized test where taste panelists (n=15) evaluate a pair of sweetener solutions at a time—one sample contains aqueous sweetener solution plus compound (i.e. test) while the other contains aqueous sweetener solution at higher concentration without compound (i.e. positive control). Each test sample was compared against a positive control. For example, if the test sample contained 1× sweetener concentration with compound (e.g. 5% sucrose with compound), the positive control sample contained a 1.1× sweetener concentration (e.g. 5.5% sucrose without compound).
Panelists were instructed not to eat or drink (except water) for at least 1 h before the test. During the test, panelists were instructed to sip each sample, swirl it around their mouth and then expectorate. After tasting each sample in the pair, panelists were instructed to record the sample that is “sweeter” in taste. Panelists cleansed their palates by rinsing with water, eating a cracker and waiting for an interval of about 5 minutes. Each pair was tasted twice. All samples were tasted at ambient temperatures. Data were analyzed using binomial probabilities.
Approximate levels of sweetness enhancement in column 5 of Table 2 were calculated as follows:
Approximate levels of sweetness enhancement=Sweetener concentration of positive control surpassed by the test sample, divided by sweetener concentration for compound-containing sample (e.g. 1.15×=5.75% sucrose/5% sucrose).

[3] = test system: perception of the sweet taste in an aqueous environment; experiment: Trained descriptive analysis (DA) panel, sweet attribute; format: in vivo, humans; settings: for Compound effects beyond the additive effect of inherent sweetness: 4% fructose and 8% sucrose
Protocol: The effect of the test compounds on the perception of the sweet taste in an aqueous environment, in the absence or presence of carbohydrate sweeteners, was evaluated using a descriptive analysis methodology with a group of trained panelists, as follows.
Candidate panelists were recruited, with prescreening and personal interviews, and were assessed for their ability to detect, recognize and differentiate basic taste attributes or mixtures thereof as part of a standardized acuity test. These candidate panelists were also assessed for their innate ability to identify flavors, and to rank on intensity scales. Other senses such as smell and vision were also included as part of the assessment. Candidates also were screened for their ability to use the language to describe and articulate ideas.
Selected candidates proceeded to training as a group in three phases: (1) Lexicon development, (2) Concept alignment, and (3) Scaling descriptors. During lexicon development, panelists evaluated products appropriate for use in the study to generate and align on terms describing the flavor, taste, aromatic, trigeminal, and temporal attributes. During concept alignment, the panel evaluated the products mentioned above to clarify and confirm the attributes that were generated during lexicon development using reference standards that appropriately define each attribute; these are either physical references (e.g. sucrose solutions) or verbal descriptions (e.g. overall flavor). Product terms and concepts were validated during this portion of the study.
In the last phase, scaling descriptors, the panel participated in a series of exercises focused on ordering and ranking samples according to relative attribute intensity, measuring attribute intensity using a defined length of line scale. Whenever possible, different levels or concentration of references were used as anchors to facilitate use of the scale. Panelists were provided with blinded references at this stage to evaluate their understanding and perception of the scale.
The panel used in this example was trained to reference sweet attributes in an absolute manner, such that a particular concentration of sweetener is always measured by the panelists at the same point using a 15 cm line scale where each cm represents a 1% increase in sucrose to cover the range of 0% to 15% sucrose. For the rest of the attributes, the panel was trained using a hybrid approach between descriptive analysis methods (e.g. quantitative descriptive analysis, the sensory spectrum, etc.) well-known to those skilled in the art.
The trained panel was then used for a descriptive analysis assessment for Compounds 1, 2 and 3 in aqueous solutions at pH 3 and pH 7. Each of the three compounds was tested at 35 ppm in sucrose and fructose sweeteners. In addition, Compounds 1, 2 and 3 were also examined in water at pH 3 and pH 7 to assess for any inherent sweetness.
The aqueous sweetener solutions were prepared by adding, fructose or sucrose (by weight), to water to achieve the desired concentration. Aqueous sucrose solutions at pH 3 were buffered using a final concentration of 0.096% Citric Acid plus 0.036% Sodium Citrate while aqueous fructose solutions at pH 3 were buffered using a final concentration of 0.06% Citric Acid and 0.0225% Sodium Citrate.
Compounds were first prepared as a […] concentrated stock solution in 100% ethanol. These concentrated stocks were then added to the aqueous sweetener solutions to result in a final ethanol concentration of 0.2%. In addition to compounds, a solubilizing agent at a final concentration of 0.02% was added to the aqueous sweetener solutions. Control samples were also balanced with 0.2% ethanol and in certain cases 0.02% solubilizing agent.
Both control (aqueous sweetener solutions without compound) and variant (aqueous sweetener solutions with compound) samples were blinded and randomized (by sweetener and pH blocks). […]

[4] = test system: flavor; settings: DuBois, et al., J. Med. Chem., 1981; cited from earlier work
[5] = 4% fructose, pH 3, 35 ppm compound plus solubilizing agent
[6] = 4% fructose, pH 7, 35 ppm compound plus solubilizing agent
[7] = 8% sucrose, pH 3, 35 ppm compound plus solubilizing agent
[8] = 8% sucrose, pH 7, 35 ppm compound plus solubilizing agent

COc1ccc(C2CC(=O)c3c(O)cccc3O2)cc1O (racemic) [Compound 1, 5-hydroxy-2-(3-hydroxy-4-methoxyphenyl)chroman-4-one]
R Index Score ([1]; 4% fructose test sample): 90 | R Index Score ([1]; 5% sucrose test sample, significant at R index ≧60): 93 | Fold increase in perceived sweetness ([2]; test sample 4% fructose, compound 25 ppm with positive 2AFC): >1.20X | Fold increase in perceived sweetness ([2]; test sample 5% sucrose, compound 15 ppm with positive 2AFC, positive control surpassed / test sweetener concentration): >1.15X | Fold increase in perceived sweetness ([2]; test sample 6.5% glucose, compound 10, 25 ppm with positive 2AFC): >1.15X | DA Panel Average Sweetness Intensity Score (on 15 cm scale) [3, 5]: 6.94 | Fold enhancement of sweetness perception as compared to control sweetener solution [3, 5]: 1.38X | DA Panel Average Sweetness Intensity Score (on 15 cm scale) [3, 6]: 7.80 | Fold enhancement of sweetness perception as compared to control sweetener solution [3, 6]: 1.78X | DA Panel Average Sweetness Intensity Score (on 15 cm scale) [3, 7]: 9.31 | Fold enhancement of sweetness perception as compared to control sweetener solution [3, 7]: 1.29X | DA Panel Average Sweetness Intensity Score (on 15 cm scale) [3, 8]: 9.97 | Fold enhancement of sweetness perception as compared to control sweetener solution [3, 8]: 1.33X | DA Panel Average Sweetness Intensity Score (on 15 cm scale) ([3]; citric acid-citrate solution pH 3, no sweetener, 35 ppm compound plus solubilizing agent): 1.14 | Perceived inherent sweetness compared to solubilizing agent alone ([3]; citric acid-citrate solution pH 3, 35 ppm compound plus solubilizing agent): do not show further significant increase in perceived inherent sweetness | Compound effects beyond the additive effect of inherent sweetness ([3]; pH 3, 35 ppm): super-additive effects | Perceived sweetness vs control sweetener solutions (FIG. 2) ([3]; pH 3, fructose and sucrose, 35 ppm, ** p<0.01): significant increase in perceived sweetness | Compound effects beyond the additive effect of inherent sweetness ([3]; pH 7, 35 ppm): super-additive effects | Perceived sweetness vs control sweetener solutions (FIG. 1) ([3]; pH 7, fructose and sucrose, 35 ppm, ** p<0.01): significant increase in perceived sweetness | DA Panel Average Sweetness Intensity Score (on 15 cm scale) ([3]; water pH 7, no sweetener, 35 ppm compound plus solubilizing agent, 1 cm = 1% sucrose): 1.57 | Perceived sweetness compared to solubilizing agent alone (inherent sweetness) ([3]; water pH 7, 35 ppm compound plus solubilizing agent): further increase in perceived sweetness | Reported flavor (bitter) [4]: bitter flavor in a significant portion of tasters | Reported flavor (sweet) [4]: sweet flavor
